Source: patent US20220023552A1, “KIT FOR INHALED CHEMOTHERAPY, AND TREATMENT OF LUNG CANCER WITH SAID KIT” (UNIVERSITÉ LIBRE DE BRUXELLES, priority 2018, published 2022)

Assays:
M109-HiFR-LUC2 cells [1] = assay: tumor growth by in vivo bioluminescence in orthotopic lung cancer mice model; design: species or system BALB/c mice; conditions: Example 4; p<0.05 for combination, p>0.05 for cisplatin IV
Protocol: The orthotopic intrapulmonary implantation procedure was performed using an adaption of the protocol described previously (Wauthoz et al., Nanomedicine 2015). Briefly, under anesthesia, 6 to 7-week-old BALB/c mice were grafted with 1.4 million M109-HiFR-LUC2 cells in 20 μL of a 50:50 v/v mix of folate-free RPMI/Matrigel® injected intercostally after incision of the skin and dissection of subcutaneous muscles. The different tissue incisions were stitched with a 3-0 silk (Ethicon®, St-Stevens-Woluwe, Belgium). The mice were closely observed until complete recovery. The therapeutic response of the M109 model to cisplatin was evaluated by in vivo optical imaging (bioluminescence) and survival analysis. Bioluminescence is directly proportional to the number of living M109-HiFR-LUC2 tumor cells. […]
The protocol described in example 3 has been reproduced, except that survival rates were also determined (no euthanasia on day 19 and no ex vivo bioluminescence analysis), the treatment started on day 6 according to the scheme table 3 below and that three groups of 4-15 mice were compared: […]
The protocol described in example 3 has been reproduced, except that survival rates were also determined (no euthanasia on day 19 and no ex vivo bioluminescence analysis), the treatment started on day 3 according to the scheme table 5 below and three groups of 8-16 mice were compared: […]

M109-HiFR-LUC2 cells [2] = assay: ex vivo bioluminescence analysis of tumor localization (resected lungs vs chest cavity); assay type: in vivo, BALB/c mice; conditions: Example 3 additional experiment, day 19 post engraftment
Protocol: Briefly, under anesthesia, 6 to 7-week-old BALB/c mice were grafted with 1.4 million M109-HiFR-LUC2 cells in 20 μL of a 50:50 v/v mix of folate-free RPMI/Matrigel® injected intercostally after incision of the skin and dissection of subcutaneous muscles. The different tissue incisions were stitched with a 3-0 silk (Ethicon®, St-Stevens-Woluwe, Belgium). The mice were closely observed until complete recovery. The therapeutic response of the M109 model to cisplatin was evaluated by in vivo optical imaging (bioluminescence) and survival analysis. Bioluminescence is directly proportional to the number of living M109-HiFR-LUC2 tumor cells. Bioluminescence was performed up to day 19 post tumor cell engraftment using a Photonlmager RT (Biospace Lab, France) using the conventional supplier's protocol. Mice were weighted three times a week and sacrificed if their weight loss exceeded 20% from the beginning of the experiment or 15% from the last measurement or if they were suffocating. In these cases, the mouse death was notified as occurred the day after.
An additional experiment was performed evaluating cisplatin DPI according to example 1 vs cisplatin IV on the same lung cancer mice model. […]

[3] = geometrical particle size distribution (PSD) by laser diffraction; assay type: physicochemical; conditions: mean ± SD, n = 3
Protocol: The geometrical PSD of bulk cisplatin, cisplatin microparticles from the size-reduction process, and cisplatin dry powder formulation, was measured as suspended and individualized particles. This was done using a Mastersizer 3000 laser diffractometer (Malvern Instruments Ltd., Worcestershire, UK) connected to a Hydro MV dispenser equipped with a 40 W ultrasonic probe (Malvern Instruments Ltd.). Measurements of bulk cisplatin and aliquots of cisplatin microparticles from the size-reduction process were performed in cisplatin-saturated isopropanol. […] The geometrical PSD of bulk cisplatin, cisplatin microparticles from the size-reduction process, and cisplatin dry powder formulation, was measured as suspended and individualized particles as described in the Example 1 and are presented in table 2.

[4] = Table 1, materials of Example 1
[5] = Table 2, materials of Example 2

| SMILES | significance of the decrease in tumor growth versus untreated control (1-way ANOVA) (M109-HiFR-LUC2 cells [1]) | tumor growth in the chest, cisplatin IV compared with cisplatin DPI (FIG. 3) (M109-HiFR-LUC2 cells [2]; chest cavity = loco-regional metastases) | tumor growth in the lungs, cisplatin IV compared with cisplatin DPI (FIG. 3) (M109-HiFR-LUC2 cells [2]; resected lungs = primary lung tumors) | D50 (volume median diameter) [3, 4] | D[4,3] (volume mean diameter) [3, 4] | D50 (volume median diameter) [3, 5] | D[4,3] (volume mean diameter) [3, 5] |
| --- | --- | --- | --- | --- | --- | --- | --- |
| N.N.[Cl][Pt][Cl] [cisplatin IV, cisplatin] | not | decrease of tumor growth in the chest | similar |  |  |  |  |
| N.N.[Cl][Pt][Cl] [Raw cisplatin, cisplatin] |  |  |  | 16.5 ± 3.6 μm | 18.9 ± 4.3 μm | 6.3 ± 0.1 μm | 7.1 ± 0.2 μm |
